Experimental data taken from patent US8765727B2, “Macrocyclic compounds and their use as kinase inhibitors” (Incyte Corporation, priority 2009, dated 2014).

What was measured:
Format in all cases: biochemical
[1] = molecular target: human JAK1 (a.a. 837-1142) catalytic domain (Homo sapiens, UniProt P23458); assay: In vitro JAK kinase assay (HTRF), JAK1; details: 90 μM ATP, 500 nM peptide, room temperature 1 hr
Method: (§1) One or more compounds herein were tested for inhibitory activity of JAK targets according to the following in vitro assay described in Park et al., Analytical Biochemistry 1999, 269, 94-104. The catalytic domains of human JAK1 (a.a. 837-1142), JAK2 (a.a. 828-1132) and JAK3 (a.a. 781-1124) with an N-terminal His tag were expressed using baculovirus in insect cells and purified. The catalytic activity of JAK1, JAK2 or JAK3 was assayed by measuring the phosphorylation of a biotinylated peptide. The phosphorylated peptide was detected by homogenous time resolved fluorescence (HTRF). […] The ATP concentration in the reactions was 90 μM for JAK1, 30 μM for JAK2 and 3 μM for JAK3. Reactions were carried out at room temperature for 1 hr and then stopped with 20 μL 45 mM EDTA, 300 nM SA-APC, 6 nM Eu-Py20 in assay buffer (Perkin Elmer, Boston, Mass.). Binding to the Europium labeled antibody took place for 40 minutes and HTRF signal was measured on a Fusion plate reader (Perkin Elmer, Boston, Mass.).

[2] = molecular target: human JAK2 (a.a. 828-1132) catalytic domain (Homo sapiens (Human), UniProt O60674); assay: In vitro JAK kinase assay (HTRF), JAK2; details: 30 μM ATP, 500 nM peptide, room temperature 1 hr
Chain of human JAK2 (a.a. 828-1132) catalytic domain (O60674 828-1132): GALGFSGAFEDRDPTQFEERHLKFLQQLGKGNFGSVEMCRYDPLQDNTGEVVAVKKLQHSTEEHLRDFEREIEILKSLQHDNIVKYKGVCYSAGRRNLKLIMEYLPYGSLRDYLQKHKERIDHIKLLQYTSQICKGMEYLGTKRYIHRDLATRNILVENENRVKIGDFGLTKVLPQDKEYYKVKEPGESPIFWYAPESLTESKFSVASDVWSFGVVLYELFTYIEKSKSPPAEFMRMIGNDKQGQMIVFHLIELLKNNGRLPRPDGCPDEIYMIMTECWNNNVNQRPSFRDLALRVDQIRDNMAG
Method: One or more compounds herein were tested for inhibitory activity of JAK targets according to the following in vitro assay described in Park et al., Analytical Biochemistry 1999, 269, 94-104. The catalytic domains of human JAK1 (a.a. 837-1142), JAK2 (a.a. 828-1132) and JAK3 (a.a. 781-1124) with an N-terminal His tag were expressed using baculovirus in insect cells and purified. The catalytic activity of JAK1, JAK2 or JAK3 was assayed by measuring the phosphorylation of a biotinylated peptide. The phosphorylated peptide was detected by homogenous time resolved fluorescence (HTRF). […] Binding to the Europium labeled antibody took place for 40 minutes and HTRF signal was measured on a Fusion plate reader (Perkin Elmer, Boston, Mass.).

[3] = molecular target: human JAK3 (a.a. 781-1124) catalytic domain (Homo sapiens (Human), UniProt P52333); assay: In vitro JAK kinase assay (HTRF), JAK3; details: 3 μM ATP, 500 nM peptide, room temperature 1 hr
Chain of human JAK3 (a.a. 781-1124) catalytic domain (P52333 781-1124): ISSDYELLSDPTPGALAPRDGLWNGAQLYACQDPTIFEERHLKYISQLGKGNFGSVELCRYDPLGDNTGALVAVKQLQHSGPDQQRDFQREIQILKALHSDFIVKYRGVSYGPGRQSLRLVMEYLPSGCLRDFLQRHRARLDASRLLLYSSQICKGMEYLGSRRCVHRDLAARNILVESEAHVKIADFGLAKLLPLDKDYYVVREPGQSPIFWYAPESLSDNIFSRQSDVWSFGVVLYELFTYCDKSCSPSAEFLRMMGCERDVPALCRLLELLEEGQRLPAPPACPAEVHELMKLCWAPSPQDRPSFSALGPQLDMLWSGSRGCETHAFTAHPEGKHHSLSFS
Method: as §1

TYK2 = TYK2 (Homo sapiens (Human), UniProt P29597); assay: TYK2 assay (as described by Thompson et al.)
Chain of TYK2 (P29597 whole entry, species assumed): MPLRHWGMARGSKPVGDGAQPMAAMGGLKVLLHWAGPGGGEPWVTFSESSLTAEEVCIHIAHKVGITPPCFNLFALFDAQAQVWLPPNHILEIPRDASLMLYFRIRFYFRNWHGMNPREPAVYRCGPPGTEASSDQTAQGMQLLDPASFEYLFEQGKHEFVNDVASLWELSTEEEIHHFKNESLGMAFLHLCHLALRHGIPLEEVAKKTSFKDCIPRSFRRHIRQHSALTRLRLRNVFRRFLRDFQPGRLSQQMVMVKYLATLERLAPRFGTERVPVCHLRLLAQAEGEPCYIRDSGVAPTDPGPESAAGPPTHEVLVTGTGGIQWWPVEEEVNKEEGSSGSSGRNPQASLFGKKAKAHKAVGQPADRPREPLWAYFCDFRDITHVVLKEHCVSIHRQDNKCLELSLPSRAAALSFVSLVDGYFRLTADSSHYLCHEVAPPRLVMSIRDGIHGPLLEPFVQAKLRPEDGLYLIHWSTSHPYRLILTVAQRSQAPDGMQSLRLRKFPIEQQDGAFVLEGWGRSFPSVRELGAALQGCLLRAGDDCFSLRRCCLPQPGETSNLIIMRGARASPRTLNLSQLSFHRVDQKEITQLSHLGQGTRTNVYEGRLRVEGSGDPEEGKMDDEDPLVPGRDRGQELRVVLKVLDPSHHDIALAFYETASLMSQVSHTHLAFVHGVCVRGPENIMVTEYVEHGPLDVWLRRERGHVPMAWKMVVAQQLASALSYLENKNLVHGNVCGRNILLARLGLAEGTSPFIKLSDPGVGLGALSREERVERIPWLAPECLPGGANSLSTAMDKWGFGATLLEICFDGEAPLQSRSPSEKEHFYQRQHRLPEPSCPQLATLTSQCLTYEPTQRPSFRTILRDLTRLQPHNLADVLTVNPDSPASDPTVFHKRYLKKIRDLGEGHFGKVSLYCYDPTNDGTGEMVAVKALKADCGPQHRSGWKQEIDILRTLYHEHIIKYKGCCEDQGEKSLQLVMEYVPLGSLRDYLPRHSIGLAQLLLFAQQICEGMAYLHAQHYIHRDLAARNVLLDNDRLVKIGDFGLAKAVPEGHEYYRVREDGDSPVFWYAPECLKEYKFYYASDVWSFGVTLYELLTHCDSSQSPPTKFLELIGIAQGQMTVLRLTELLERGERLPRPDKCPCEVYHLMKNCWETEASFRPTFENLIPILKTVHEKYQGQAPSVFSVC
From the text: The invention will be described in greater detail by way of specific examples. The following examples are offered for illustrative purposes, and are not intended to limit the invention in any manner. Those of skill in the art will readily recognize a variety of non-critical parameters which can be changed or modified to yield essentially the same results. In some instances where the compounds of the examples were isolated by preparative HPLC in the presence of trifluoroacetic acid (TFA) or other acid, the compound may have been obtained as the corresponding salt. […] Certain compounds described in Tables 1 and in the Example section were tested for inhibitory activity of JAK/ALK targets according to assays such as those described herein or those known in the art [e.g., ALK assays described in WO 04/079326; and TYK2 assays described by James E. Thompson et. al, “Photochemical preparation of a pyridone containing tetracycle: A JAK protein kinase inhibitor,” Bioorganic & Medicinal Chemistry Letters, Volume 12, Issue 8, 22 Apr. 2002, Pages 1219-1223]. […] Some exemplary data of the compounds of the invention are shown in Table 1 in the experimental section.

[4] = molecular target: Recombinant Human Anaplastic Lymphoma Kinase (Homo sapiens (Human), UniProt Q9UM73); assay: ALK HTRF kinase assay; details: 90 μM ATP, 0.25 nM enzyme, 2 hours at 25° C.
Chain of Recombinant Human Anaplastic Lymphoma Kinase (Q9UM73 19-1620): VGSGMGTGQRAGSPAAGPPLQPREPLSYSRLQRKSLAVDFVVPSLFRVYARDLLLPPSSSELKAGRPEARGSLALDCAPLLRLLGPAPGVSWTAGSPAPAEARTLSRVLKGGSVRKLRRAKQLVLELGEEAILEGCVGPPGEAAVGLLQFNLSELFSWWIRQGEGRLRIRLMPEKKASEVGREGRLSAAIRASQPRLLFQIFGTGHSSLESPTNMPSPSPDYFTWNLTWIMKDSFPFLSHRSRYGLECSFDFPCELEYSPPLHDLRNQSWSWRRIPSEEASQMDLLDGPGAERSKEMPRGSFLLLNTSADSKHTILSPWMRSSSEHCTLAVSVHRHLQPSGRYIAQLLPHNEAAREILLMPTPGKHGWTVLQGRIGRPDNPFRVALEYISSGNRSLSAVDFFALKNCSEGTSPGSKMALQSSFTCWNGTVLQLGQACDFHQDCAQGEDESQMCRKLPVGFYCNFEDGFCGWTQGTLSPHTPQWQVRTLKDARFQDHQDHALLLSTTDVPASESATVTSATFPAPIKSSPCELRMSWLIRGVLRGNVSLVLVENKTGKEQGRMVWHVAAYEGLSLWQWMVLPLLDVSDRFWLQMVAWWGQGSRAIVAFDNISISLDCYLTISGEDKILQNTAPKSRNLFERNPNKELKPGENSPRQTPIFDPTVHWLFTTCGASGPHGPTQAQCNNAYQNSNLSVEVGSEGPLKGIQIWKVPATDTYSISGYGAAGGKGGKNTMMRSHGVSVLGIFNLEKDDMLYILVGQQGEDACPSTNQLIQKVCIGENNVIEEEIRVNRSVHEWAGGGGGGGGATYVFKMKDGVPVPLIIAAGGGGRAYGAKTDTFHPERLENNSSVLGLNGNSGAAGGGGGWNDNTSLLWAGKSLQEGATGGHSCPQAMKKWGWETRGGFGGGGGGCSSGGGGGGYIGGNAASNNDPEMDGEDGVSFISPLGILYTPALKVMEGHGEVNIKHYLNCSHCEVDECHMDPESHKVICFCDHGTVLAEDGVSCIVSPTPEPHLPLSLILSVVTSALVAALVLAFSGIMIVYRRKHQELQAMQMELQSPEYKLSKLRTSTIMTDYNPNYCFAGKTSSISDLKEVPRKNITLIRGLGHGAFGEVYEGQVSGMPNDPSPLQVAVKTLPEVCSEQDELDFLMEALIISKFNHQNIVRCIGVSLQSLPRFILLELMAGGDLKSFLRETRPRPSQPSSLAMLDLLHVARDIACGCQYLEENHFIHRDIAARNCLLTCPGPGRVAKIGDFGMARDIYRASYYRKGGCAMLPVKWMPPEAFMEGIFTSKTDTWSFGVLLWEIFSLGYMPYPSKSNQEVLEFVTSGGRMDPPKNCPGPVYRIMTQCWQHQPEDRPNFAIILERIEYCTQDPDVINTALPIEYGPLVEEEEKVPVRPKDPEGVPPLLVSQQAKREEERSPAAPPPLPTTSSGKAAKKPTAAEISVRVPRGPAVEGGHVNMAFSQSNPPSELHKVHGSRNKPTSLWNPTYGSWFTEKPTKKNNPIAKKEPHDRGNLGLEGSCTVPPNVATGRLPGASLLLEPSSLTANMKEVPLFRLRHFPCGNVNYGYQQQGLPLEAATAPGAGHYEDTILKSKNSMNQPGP
Method: Materials: Recombinant Human Anaplastic Lymphoma Kinase was purchased from Invitrogen, Carlsbad, Calif. Peptide substrate (Biotin-[…]-amide) was custom synthesized at EZBiolab, Westfield, Ind. Streptavidin conjugated SureLight-Allophycocyania and LANCE Eu-W1024 labeled anti-phosphotyrosine antibody were from Perkin-Elmer, Boston, Mass. Microplates were from Corning Inc., Acton, Mass. All other reagents were from Sigma, St. Louis, Mo.
HTRF kinase assay: 40 μL reactions were run in black 384 well polystyrene plates in assay buffer (50 mM Tris, pH 7.8, 100 mM NaCI, 0.1 mg/mL BSA, 5 mM DTT), containing 0.5 μM Biotinylated peptide substrate, 10 mM MgCl2, 90 μM ATP, and 0.25 nM enzyme for 2 hours at 25° C. Reactions were stopped by addition of 20 μL assay buffer supplemented with an additional 50 mM NaCl, 0.4 mg/mL BSA, 45 mM EDTA, 4.5 nM LANCE Eu-W1024 labeled anti-phosphotyrosine antibody and 200 nM streptavidin conjugated SureLight-allophycocyanin. Plates were read in Fusion α-FP instrument (Perkin-Elmer). The concentrations needed to reach 50% inhibition, the IC50 value, were determined by fitting the assay signal to the following equation using Graphpad Prizm. Signal=Bottom+(Top−Bottom)/(1+10^((Log(IC50)−Log [I])*Hill Slope) Bottom and Top refer to the post and pre-transition baselines, respectively.

Row | Compound | IC50 [1] [nM] | IC50 [2] [nM] | IC50 [3] [nM] | IC50 (TYK2) [nM] | IC50 [4] [nM]
1 | Nc1ccc2cc1CCc1cncc(c1)Nc1ncc(Cl)c(n1)NC2 [Example 17, 6-Chloro-2,4,8,19,23-pentaazatetracyclo[15.3.1.1(3,7).1(10,14)]tricosa-1(21),3(23),4,6,10(22),11,13,17,19-nonaen-13-amine] | 102 | 447 | 114 | 386 | > 1000
2 | O=C(Nc1ccc2cc1CCc1cncc(c1)Nc1ncc(Cl)c(n1)NC2)c1ccccc1 [Example 18, N-[6-Chloro-2,4,8,19,23-pentaazatetracyclo[15.3.1.1(3,7).1(10,14)]tricosa-1(21),3(23),4,6,10(22),11,13,17,19-nonaen-13-yl]benzamide bis(trifluoroacetate)] | > 1000 | > 1000 | > 1000 | > 1000 | > 1000
3 | N#Cc1ccccc1S(=O)(=O)Nc1ccc2cc1CCc1cncc(c1)Nc1ncc(Cl)c(n1)NC2 [Example 19, N-[6-Chloro-2,4,8,19,23-pentaazatetracyclo[15.3.1.1(3,7).1(10,14)]tricosa-1(21),3(23),4,6,10(22),11,13,17,19-nonaen-13-yl]-2-cyanobenzenesulfonamide bis(trifluoroacetate)] | > 1000 | > 1000 | > 1000 | > 1000 | > 1000
